According to US20260224524A1, “A PHARMACEUTICAL COMPOSITION TARGETING MUTANT P53 AND HER2” (DR DOZO LABORATORIES, priority 2023, published 2026):
Converted amounts (≈) assume the structure as drawn.

Legend:
[1] = tested on: Human Lung Cancer Cell Line A-549; test: Growth inhibition (% control growth, LC50, TGI, GI50) A-549; format: cell-based
Protocol: The therapeutic effect of SA1 (peak 5) and SA2 (peak 4) is evaluated against human lung cancer cell line A-549 by calculating the percentage growth inhibition, drug concentration of test compound needed to inhibit cell growth by 50% (GI50) values.
The therapeutic effect of SACC is evaluated against human lung cancer cell line A-549 by calculating the percentage growth inhibition, drug concentration of test compound needed to inhibit cell growth by 50% (GI50) values.

[2] = tested on: human tumour xenograft MDA-MB-231; test: Human tumour xenograft MDA-MB-231 model, tumour volume and relative tumour volume; format: in vivo, mice; set-up: Tumor Volume: unit not given here; conditions: Group B; for RTV (Relative Tumour Volume): 2.5 mg/kg i.v. day 1, 5, 9
Protocol: The therapeutic effect of SACC is evaluated against triple-negative breast cancer cell line MDA-MB-231 by analysing tumour volume and relative tumour volume. The study involved the use of six mice. These mice were administrated treatment according to the following Groups: […]

COc1cccc2c1C(=O)c1c(O)c3c(c(O)c1C2=O)C[C@@](O)(C(=O)CO)C[C@@H]3O[C@H]1C[C@H](N)[C@H](O)[C@H](C)O1 [ADR, Adriamycin]
% Control Growth ([1]; A-549, 10 μg/ml, Average Values): −26.5% | % Control Growth ([1]; A-549, 10 μg/ml, Experiment 1): −23.5% | % Control Growth ([1]; A-549, 10 μg/ml, Experiment 2): −29.5% | % Control Growth ([1]; A-549, 10 μg/ml, Experiment 3): −26.5% | % Control Growth ([1]; A-549, 20 μg/ml, Average Values): −30.8% | % Control Growth ([1]; A-549, 20 μg/ml, Experiment 1): −28.2% | % Control Growth ([1]; A-549, 20 μg/ml, Experiment 2): −33.8% | % Control Growth ([1]; A-549, 20 μg/ml, Experiment 3): −30.4% | % Control Growth ([1]; A-549, 40 μg/ml, Average Values): −46.0% | % Control Growth ([1]; A-549, 40 μg/ml, Experiment 1): −45.0% | % Control Growth ([1]; A-549, 40 μg/ml, Experiment 2): −48.7% | % Control Growth ([1]; A-549, 40 μg/ml, Experiment 3): −44.2% | % Control Growth ([1]; A-549, 80 μg/ml, Average Values): −50.0% | % Control Growth ([1]; A-549, 80 μg/ml, Experiment 1): −49.4% | % Control Growth ([1]; A-549, 80 μg/ml, Experiment 2): −51.0% | % Control Growth ([1]; A-549, 80 μg/ml, Experiment 3): −49.4% | % Control Growth ([1]; A-549, 10^−4M, Average Values): −43.0% | % Control Growth ([1]; A-549, 10^−4M, Experiment 1): 36.5% | % Control Growth ([1]; A-549, 10^−4M, Experiment 2): 44.4% | % Control Growth ([1]; A-549, 10^−4M, Experiment 3): −48.1% | % Control Growth ([1]; A-549, 10^−5M, Average Values): −34.9% | % Control Growth ([1]; A-549, 10^−5M, Experiment 1): −30.6% | % Control Growth ([1]; A-549, 10^−5M, Experiment 2): −33.8% | % Control Growth ([1]; A-549, 10^−5M, Experiment 3): −40.3% | % Control Growth ([1]; A-549, 10^−6M, Average Values): −4.0% | % Control Growth ([1]; A-549, 10^−6M, Experiment 1): 10.2% | % Control Growth ([1]; A-549, 10^−6M, Experiment 2): −11.3% | % Control Growth ([1]; A-549, 10^−6M, Experiment 3): −11.0% | % Control Growth ([1]; A-549, 10^−7M, Average Values): 12.4% | % Control Growth ([1]; A-549, 10^−7M, Experiment 1): 53.2% | % Control Growth ([1]; A-549, 10^−7M, Experiment 2): 15.9% | % Control Growth ([1]; A-549, 10^−7M, Experiment 3): −32.0% | TGI ([1]; A-549, Molar drug concentrations calculated from graph): 4.143 µg/mL (≈ 7.62 µM) | TGI ([1]; A-549, calculated from graph): <10 µg/mL | GI50 ([1]; Homo sapiens, A549, A-549, calculated from graph): < 10 µg/mL | CC50 ([1]; Homo sapiens, A549, read-out: LC50, A-549, calculated from graph): 72 µg/mL (≈ 132 µM) | GI50 ([1]; Homo sapiens, A549, A-549, Molar drug concentrations calculated from graph): 1.2 µg/mL (≈ 2.21 µM) | RTV (Relative Tumour Volume) ([2]; day 9): 0.95 | RTV (Relative Tumour Volume) ([2]; day 15): 1.63 | RTV (Relative Tumour Volume) ([2]; day 18): 1.93 | RTV (Relative Tumour Volume) ([2]; day 21): 2.29 | RTV (Relative Tumour Volume) ([2]; day 25): 4.22 | RTV (Relative Tumour Volume) ([2]; day 30): 7.30 | tumour volume (in words) ([2]; ADR 2.5 mg/Kg): decreased tumour volume | Tumor Volume ([2]; ADR 2.5 mg/Kg, day 1, Mouse 1): 0.06 | Tumor Volume ([2]; ADR 2.5 mg/Kg, day 1, Mouse 2): 0.05 | Tumor Volume ([2]; ADR 2.5 mg/Kg, day 1, Mouse 3): 0.06 | Tumor Volume ([2]; ADR 2.5 mg/Kg, day 1, Mouse 4): 0.05 | Tumor Volume ([2]; ADR 2.5 mg/Kg, day 1, Mouse 5): 0.06 | Tumor Volume ([2]; ADR 2.5 mg/Kg, day 1, Mouse 6): 0.06 | Tumor Volume ([2]; ADR 2.5 mg/Kg, day 5, Mouse 1): 0.05 | Tumor Volume ([2]; ADR 2.5 mg/Kg, day 5, Mouse 2): 0.07 | Tumor Volume ([2]; ADR 2.5 mg/Kg, day 5, Mouse 3): 0.06 | Tumor Volume ([2]; ADR 2.5 mg/Kg, day 5, Mouse 4): 0.06 | Tumor Volume ([2]; ADR 2.5 mg/Kg, day 5, Mouse 5): 0.05 | Tumor Volume ([2]; ADR 2.5 mg/Kg, day 5, Mouse 6): 0.06 | Tumor Volume ([2]; ADR 2.5 mg/Kg, day 9, Mouse 1): 0.05 | Tumor Volume ([2]; ADR 2.5 mg/Kg, day 9, Mouse 2): 0.08 | Tumor Volume ([2]; ADR 2.5 mg/Kg, day 9, Mouse 3): 0.04 | Tumor Volume ([2]; ADR 2.5 mg/Kg, day 9, Mouse 4): 0.04 | Tumor Volume ([2]; ADR 2.5 mg/Kg, day 9, Mouse 5): 0.06 | Tumor Volume ([2]; ADR 2.5 mg/Kg, day 9, Mouse 6): 0.05 | Tumor Volume ([2]; ADR 2.5 mg/Kg, day 12, Mouse 1): 0.06 | Tumor Volume ([2]; ADR 2.5 mg/Kg, day 12, Mouse 2): 0.10 | Tumor Volume ([2]; ADR 2.5 mg/Kg, day 12, Mouse 3): 0.05 | Tumor Volume ([2]; ADR 2.5 mg/Kg, day 12, Mouse 4): 0.05 | Tumor Volume ([2]; ADR 2.5 mg/Kg, day 12, Mouse 5): 0.06 | Tumor Volume ([2]; ADR 2.5 mg/Kg, day 12, Mouse 6): 0.07 | Tumor Volume ([2]; ADR 2.5 mg/Kg, day 15, Mouse 1): 0.07 | Tumor Volume ([2]; ADR 2.5 mg/Kg, day 15, Mouse 2): 0.16 | Tumor Volume ([2]; ADR 2.5 mg/Kg, day 15, Mouse 3): 0.07 | Tumor Volume ([2]; ADR 2.5 mg/Kg, day 15, Mouse 4): 0.06 | Tumor Volume ([2]; ADR 2.5 mg/Kg, day 15, Mouse 5): 0.08 | Tumor Volume ([2]; ADR 2.5 mg/Kg, day 15, Mouse 6): 0.11 | Tumor Volume ([2]; ADR 2.5 mg/Kg, day 18, Mouse 1): 0.07 | Tumor Volume ([2]; ADR 2.5 mg/Kg, day 18, Mouse 2): 0.21 | Tumor Volume ([2]; ADR 2.5 mg/Kg, day 18, Mouse 3): 0.07 | Tumor Volume ([2]; ADR 2.5 mg/Kg, day 18, Mouse 4): 0.07 | Tumor Volume ([2]; ADR 2.5 mg/Kg, day 18, Mouse 5): 0.07 | Tumor Volume ([2]; ADR 2.5 mg/Kg, day 18, Mouse 6): 0.16 | Tumor Volume ([2]; ADR 2.5 mg/Kg, day 21, Mouse 1): 0.05 | Tumor Volume ([2]; ADR 2.5 mg/Kg, day 21, Mouse 2): 0.23 | Tumor Volume ([2]; ADR 2.5 mg/Kg, day 21, Mouse 3): 0.08 | Tumor Volume ([2]; ADR 2.5 mg/Kg, day 21, Mouse 4): 0.11 | Tumor Volume ([2]; ADR 2.5 mg/Kg, day 21, Mouse 5): 0.13 | Tumor Volume ([2]; ADR 2.5 mg/Kg, day 21, Mouse 6): 0.17 | Tumor Volume ([2]; ADR 2.5 mg/Kg, day 25, Mouse 1): 0.08 | Tumor Volume ([2]; ADR 2.5 mg/Kg, day 25, Mouse 2): 0.31 | Tumor Volume ([2]; ADR 2.5 mg/Kg, day 25, Mouse 3): 0.33 | Tumor Volume ([2]; ADR 2.5 mg/Kg, day 25, Mouse 4): 0.24 | Tumor Volume ([2]; ADR 2.5 mg/Kg, day 25, Mouse 5): 0.17 | Tumor Volume ([2]; ADR 2.5 mg/Kg, day 25, Mouse 6): 0.29 | Tumor Volume ([2]; ADR 2.5 mg/Kg, day 30, Mouse 2): 0.53 | Tumor Volume ([2]; ADR 2.5 mg/Kg, day 30, Mouse 3): 0.55 | Tumor Volume ([2]; ADR 2.5 mg/Kg, day 30, Mouse 4): 0.29 | Tumor Volume ([2]; ADR 2.5 mg/Kg, day 30, Mouse 5): 0.28 | Tumor Volume ([2]; ADR 2.5 mg/Kg, day 30, Mouse 6): 0.40
